Assay results reported in patent US8785457B2 (Cellzome Limited, priority 2009, dated 2014).
Read-outs that look alike come from different tables or passages of the source.

Assays:
[1] = target: T1, DNA-dependent protein kinase (DNA-PK) (Homo sapiens, UniProt P78527); test: kinobeads assay, DNA-PK; format: binding; details: kinobeads assay
T1 construct: endogenous in cells; host or cells: Jurkat, clone E6-1 (ATCC TIB-152) cell lysate
Summary of the method: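 Competitive binding in Jurkat cell lysate (5 mg/ml total protein): test compounds at various concentrations competed with beads bearing immobilized phenylmorpholin-chromen ligand. Bead-bound kinases were eluted and quantified by antibody dot blot with infrared detection; IC50 values came from dose-response curves.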

[2] = test system: S6RP serine-240/244 phosphorylation; test: In vitro Phospho-S6 cellular assay (pS6RP S240/244) in HEK293T/17 cells; format: cell-based; details: Homo sapiens, 2 hours, read-out: pS6 IC50
Summary of the method: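 HEK293T/17 cells were seeded at 40,000 (pS6RP) or 80,000 (pAkt) cells/well in DMEM with 2% FCS. They were exposed to 8 compound concentrations (0.1% DMSO) for 2 h at 37 °C and then lysed. Phosphoprotein was quantified by MesoScale electrochemiluminescence sandwich immunoassay, and the sigmoidal variable-slope dose-response was fitted.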

[3] = Table 4, read-out: Inhibition values (IC50) DNA-PK
[4] = Table 6, read-out: Inhibition values (IC50) DNAPK

T1 sequence (P78527 whole entry): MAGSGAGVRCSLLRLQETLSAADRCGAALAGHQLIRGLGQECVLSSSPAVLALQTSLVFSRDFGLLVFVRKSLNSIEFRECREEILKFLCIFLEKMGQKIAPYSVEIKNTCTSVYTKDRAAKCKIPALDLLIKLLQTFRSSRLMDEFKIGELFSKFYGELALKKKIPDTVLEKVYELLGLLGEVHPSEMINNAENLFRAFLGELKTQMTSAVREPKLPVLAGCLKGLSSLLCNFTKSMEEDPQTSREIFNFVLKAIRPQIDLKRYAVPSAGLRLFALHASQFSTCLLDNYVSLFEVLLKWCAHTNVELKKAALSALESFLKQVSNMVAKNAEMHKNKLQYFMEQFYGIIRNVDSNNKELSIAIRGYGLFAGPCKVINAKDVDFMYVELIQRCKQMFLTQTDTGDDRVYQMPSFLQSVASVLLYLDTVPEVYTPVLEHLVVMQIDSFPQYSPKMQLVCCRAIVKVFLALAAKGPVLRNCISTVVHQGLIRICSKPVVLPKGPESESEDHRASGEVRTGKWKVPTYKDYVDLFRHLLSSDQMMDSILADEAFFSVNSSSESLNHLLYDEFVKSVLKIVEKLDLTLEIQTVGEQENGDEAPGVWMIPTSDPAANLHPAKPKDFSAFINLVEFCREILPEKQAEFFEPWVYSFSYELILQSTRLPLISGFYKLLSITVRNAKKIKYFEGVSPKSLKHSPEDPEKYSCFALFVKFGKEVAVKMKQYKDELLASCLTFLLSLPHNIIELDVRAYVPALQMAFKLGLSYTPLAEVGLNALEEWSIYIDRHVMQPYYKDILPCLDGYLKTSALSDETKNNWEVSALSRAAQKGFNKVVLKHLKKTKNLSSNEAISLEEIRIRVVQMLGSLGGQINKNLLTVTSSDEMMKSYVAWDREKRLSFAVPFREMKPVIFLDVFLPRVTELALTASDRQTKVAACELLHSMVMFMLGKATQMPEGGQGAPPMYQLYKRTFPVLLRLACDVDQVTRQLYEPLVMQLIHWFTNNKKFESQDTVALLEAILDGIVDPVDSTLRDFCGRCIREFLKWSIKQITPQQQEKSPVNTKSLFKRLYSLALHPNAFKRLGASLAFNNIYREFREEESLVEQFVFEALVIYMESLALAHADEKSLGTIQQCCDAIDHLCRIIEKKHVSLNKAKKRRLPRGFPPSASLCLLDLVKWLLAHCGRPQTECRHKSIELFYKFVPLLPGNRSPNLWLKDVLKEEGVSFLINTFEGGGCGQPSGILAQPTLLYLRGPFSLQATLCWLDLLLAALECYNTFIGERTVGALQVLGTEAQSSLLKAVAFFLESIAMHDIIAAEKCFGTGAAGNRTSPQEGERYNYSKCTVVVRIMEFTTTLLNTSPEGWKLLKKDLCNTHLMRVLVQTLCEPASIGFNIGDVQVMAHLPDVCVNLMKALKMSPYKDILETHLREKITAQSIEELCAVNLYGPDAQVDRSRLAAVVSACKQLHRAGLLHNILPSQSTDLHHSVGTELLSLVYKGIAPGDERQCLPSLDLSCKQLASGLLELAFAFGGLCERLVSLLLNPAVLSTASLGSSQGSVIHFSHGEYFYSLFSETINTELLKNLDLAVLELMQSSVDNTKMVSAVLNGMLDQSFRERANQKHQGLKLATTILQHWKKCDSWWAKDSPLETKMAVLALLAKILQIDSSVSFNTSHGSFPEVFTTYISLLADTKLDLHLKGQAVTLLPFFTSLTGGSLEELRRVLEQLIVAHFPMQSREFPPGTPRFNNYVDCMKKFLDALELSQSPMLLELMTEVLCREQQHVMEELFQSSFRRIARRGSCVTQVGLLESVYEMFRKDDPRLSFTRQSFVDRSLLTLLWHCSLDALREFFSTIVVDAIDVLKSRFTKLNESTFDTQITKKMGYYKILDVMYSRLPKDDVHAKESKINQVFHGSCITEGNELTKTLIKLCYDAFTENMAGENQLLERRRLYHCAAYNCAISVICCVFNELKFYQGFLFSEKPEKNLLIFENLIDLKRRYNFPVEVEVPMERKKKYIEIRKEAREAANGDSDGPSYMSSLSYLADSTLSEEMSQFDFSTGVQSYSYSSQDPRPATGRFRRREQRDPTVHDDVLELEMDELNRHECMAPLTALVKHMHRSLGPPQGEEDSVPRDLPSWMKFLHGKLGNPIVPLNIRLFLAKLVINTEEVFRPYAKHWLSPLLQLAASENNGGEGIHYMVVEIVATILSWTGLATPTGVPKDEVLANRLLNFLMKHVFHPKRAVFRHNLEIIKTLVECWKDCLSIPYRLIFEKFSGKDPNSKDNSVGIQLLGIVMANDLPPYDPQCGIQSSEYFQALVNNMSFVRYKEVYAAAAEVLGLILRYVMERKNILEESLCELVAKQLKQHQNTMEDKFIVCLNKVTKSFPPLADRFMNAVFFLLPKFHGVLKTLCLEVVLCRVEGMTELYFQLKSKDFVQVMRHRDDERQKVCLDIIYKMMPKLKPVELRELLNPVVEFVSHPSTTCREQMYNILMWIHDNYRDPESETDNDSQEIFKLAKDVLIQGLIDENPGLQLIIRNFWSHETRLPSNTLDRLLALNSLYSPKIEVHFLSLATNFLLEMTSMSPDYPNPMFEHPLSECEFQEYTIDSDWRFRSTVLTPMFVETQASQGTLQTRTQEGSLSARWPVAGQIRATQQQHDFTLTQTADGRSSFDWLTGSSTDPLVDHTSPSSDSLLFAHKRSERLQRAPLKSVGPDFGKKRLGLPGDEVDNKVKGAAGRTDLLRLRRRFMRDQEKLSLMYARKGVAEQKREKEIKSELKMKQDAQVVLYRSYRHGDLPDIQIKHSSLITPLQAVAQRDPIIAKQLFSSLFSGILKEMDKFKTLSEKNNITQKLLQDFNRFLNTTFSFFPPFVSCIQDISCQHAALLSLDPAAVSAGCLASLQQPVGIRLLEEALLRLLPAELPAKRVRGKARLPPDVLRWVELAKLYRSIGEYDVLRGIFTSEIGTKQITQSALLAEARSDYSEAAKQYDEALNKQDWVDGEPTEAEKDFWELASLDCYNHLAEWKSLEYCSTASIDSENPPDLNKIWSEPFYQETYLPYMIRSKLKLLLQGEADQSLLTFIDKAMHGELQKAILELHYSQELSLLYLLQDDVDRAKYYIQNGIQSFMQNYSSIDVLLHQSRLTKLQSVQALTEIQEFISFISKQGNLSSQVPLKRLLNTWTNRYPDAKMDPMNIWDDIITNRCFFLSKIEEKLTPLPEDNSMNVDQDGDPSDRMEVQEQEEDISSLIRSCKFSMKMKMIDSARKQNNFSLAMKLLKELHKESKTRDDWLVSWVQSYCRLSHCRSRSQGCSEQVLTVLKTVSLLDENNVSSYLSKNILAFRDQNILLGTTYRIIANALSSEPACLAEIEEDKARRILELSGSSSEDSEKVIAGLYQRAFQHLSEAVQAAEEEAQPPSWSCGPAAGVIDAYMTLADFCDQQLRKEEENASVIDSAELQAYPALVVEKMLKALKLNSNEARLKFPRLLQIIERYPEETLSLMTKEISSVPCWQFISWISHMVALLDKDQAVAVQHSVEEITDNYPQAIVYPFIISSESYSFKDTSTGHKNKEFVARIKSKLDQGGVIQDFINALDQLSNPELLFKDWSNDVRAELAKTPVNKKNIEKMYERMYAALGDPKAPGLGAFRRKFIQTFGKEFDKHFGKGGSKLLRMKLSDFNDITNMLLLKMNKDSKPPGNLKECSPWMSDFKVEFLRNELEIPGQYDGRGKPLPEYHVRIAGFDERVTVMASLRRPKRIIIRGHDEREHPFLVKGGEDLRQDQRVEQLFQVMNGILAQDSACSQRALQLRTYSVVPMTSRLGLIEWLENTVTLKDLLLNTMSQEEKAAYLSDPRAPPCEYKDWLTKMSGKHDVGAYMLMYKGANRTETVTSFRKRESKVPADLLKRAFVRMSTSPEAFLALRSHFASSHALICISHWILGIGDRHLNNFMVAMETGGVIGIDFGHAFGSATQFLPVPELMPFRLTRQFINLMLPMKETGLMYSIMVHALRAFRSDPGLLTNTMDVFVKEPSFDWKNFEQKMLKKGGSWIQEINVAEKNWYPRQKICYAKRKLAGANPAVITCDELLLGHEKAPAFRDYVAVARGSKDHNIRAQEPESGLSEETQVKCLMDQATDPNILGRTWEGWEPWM

Row | SMILES | IC50 [1, 3] | IC50 [1, 4] | IC50 [2]
1 | CCNC(=O)Nc1ccc(-c2nc3c(c(N4CCOC[C@@H]4C)n2)CCN(C(C)=O)C3)cc1 [Example 59, (S)-1-(4-(7-acetyl-4-(3-methylmorpholino)-5,6,7,8-tetrahydropyrido[3,4-d]pyrimidin-2-yl)phenyl)-3-ethylurea] | > 10000 nM | > 10000 nM | 160 nM
2 | CC(C)CN1Cc2nc(-c3ccc(NC(=O)NC4CC4)cc3)nc(N3CCOC[C@@H]3C)c2C1 [Example 65, (S)-1-cyclopropyl-3-(4-(6-isobutyl-4-(3-methylmorpholino)-6,7-dihydro-5H-pyrrolo[3,4-d]pyrimidin-2-yl)phenyl)urea] |  | > 10000 nM | 149 nM
3 | CCNC(=O)Nc1ccc(-c2nc3c(c(N4CCOC[C@@H]4C)n2)CN(CC(C)(C)C)C3)cc1 [Example 67, (S)-1-ethyl-3-(4-(4-(3-methylmorpholino)-6-neopentyl-6,7-dihydro-5H-pyrrolo[3,4-d]pyrimidin-2-yl)phenyl)urea] |  | > 10000 nM | 143 nM
4 | CCNC(=O)Nc1ccc(-c2nc3c(c(N4CCOC[C@@H]4C)n2)CN(CC(F)(F)F)C3)cc1 [Example 68, (S)-1-ethyl-3-(4-(4-(3-methylmorpholino)-6-(2,2,2-trifluoroethyl)-6,7-dihydro-5H-pyrrolo[3,4-d]pyrimidin-2-yl)phenyl)urea] |  | > 10000 nM | 243 nM
5 | CCNC(=O)Nc1ccc(-c2nc3c(c(N4CCOCC4)n2)CN(C)C3)cc1 [Example 69, 1-Ethyl-3-(4-(6-methyl-4-morpholino-6,7-dihydro-5H-pyrrolo[3,4-d]pyrimidin-2-yl)phenyl)urea] |  | > 10000 nM | 208 nM
6 | CCNC(=O)Nc1ccc(-c2nc3c(c(N4CCOCC4)n2)CN(C(=O)OCC)C3)cc1 [Example 70, Ethyl 2-(4-(3-ethylureido)phenyl)-4-morpholino-5H-pyrrolo[3,4-d]pyrimidine-6(7H)-carboxylate] |  | 1000 to 10000 nM | 133 nM
7 | C[C@H]1COCCN1c1nc(-c2ccc(NC(N)=O)cc2)nc2c1CN(C)C2 [Example 71, (S)-1-(4-(6-methyl-4-(3-methylmorpholino)-6,7-dihydro-5H-pyrrolo[3,4-d]pyrimidin-2-yl)phenyl)urea] |  | > 10000 nM | 690 nM
8 | Cc1cc(NC(=O)Nc2ccc(-c3nc4c(c(N5CCOC[C@@H]5C)n3)CN(C)C4)cc2)no1 [Example 72, (S)-1-(4-(6-methyl-4-(3-methylmorpholino)-6,7-dihydro-5H-pyrrolo[3,4-d]pyrimidin-2-yl)phenyl)-3-(5-methylisoxazol-3-yl)urea] |  | > 10000 nM | 129 nM
9 | C[C@H]1COCCN1c1nc(-c2ccc(NC(=O)NCCO)cc2)nc2c1CN(C)C2 [Example 73, (S)-1-(2-hydroxyethyl)-3-(4-(6-methyl-4-(3-methylmorpholino)-6,7-dihydro-5H-pyrrolo[3,4-d]pyrimidin-2-yl)phenyl)urea] |  | > 10000 nM | 425 nM
10 | CCNC(=O)Nc1ccc(-c2nc3c(c(N4CCOC[C@@H]4C)n2)CN(C(C)C)C3)cc1 [Example 74, (S)-1-ethyl-3-(4-(6-isopropyl-4-(3-methylmorpholino)-6,7-dihydro-5H-pyrrolo[3,4-d]pyrimidin-2-yl)phenyl)urea] |  | > 10000 nM | 110 nM
11 | CCNC(=O)Nc1ccc(-c2nc3c(c(N4CCOC[C@@H]4C)n2)CCN(CC(C)C)C3)cc1.O=CO [Example 76, (S)-1-ethyl-3-(4-(7-isobutyl-4-(3-methylmorpholino)-5,6,7,8-tetrahydropyrido[3,4-d]pyrimidin-2-yl)phenyl)urea formate] |  | > 10000 nM | 95 nM
12 | C[C@H]1COCCN1c1nc(-c2ccc(NC(=O)NC3CC3)cc2)nc2c1CN(C(=O)C1CCOCC1)C2 [Example 129, (S)-1-cyclopropyl-3-(4-(4-(3-methylmorpholino)-6-(tetrahydro-2H-pyran-4-carbonyl)-6,7-dihydro-5H-pyrrolo[3,4-d]pyrimidin-2-yl)phenyl)urea] |  |  | 336 nM

Molecules with a lower IC50 [2], results first:

Row | IC50 [1, 3] | IC50 [1, 4] | IC50 [2] | SMILES
13 |  | > 10000 nM | 74 nM | CCNC(=O)Nc1ccc(-c2nc3c(c(N4CCOC[C@@H]4C)n2)CN(CC(C)C)C3)cc1 [Example 66, (S)-1-ethyl-3-(4-(6-isobutyl-4-(3-methylmorpholino)-6,7-dihydro-5H-pyrrolo[3,4-d]pyrimidin-2-yl)phenyl)urea]
14 | > 10000 nM | > 10000 nM | 52 nM | CCNC(=O)Nc1ccc(-c2nc3c(c(N4CCOC[C@@H]4C)n2)CN(C(=O)OC(C)(C)C)C3)cc1 [Example 1, (S)-tert-butyl 2-(4-(3-ethylureido)phenyl)-4-(3-methylmorpholino)-5H-pyrrolo[3,4-d]pyrimidine-6(7H)-carboxylate]
15 | > 10000 nM | > 10000 nM | 49 nM | CC(=O)N1CCc2c(nc(-c3ccc(NC(=O)NC4CC4)cc3)nc2N2CCOC[C@@H]2C)C1 [Example 62, (S)-1-(4-(7-acetyl-4-(3-methylmorpholino)-5,6,7,8-tetrahydropyrido[3,4-d]pyrimidin-2-yl)phenyl)-3-cyclopropylurea]
16 |  | > 10000 nM | 38 nM | CCNC(=O)Nc1ccc(-c2nc3c(c(N4CCOC[C@@H]4C)n2)CCN(C(=O)OCC)C3)cc1 [Example 77, (S)-ethyl 2-(4-(3-ethylureido)phenyl)-4-(3-methylmorpholino)-5,6-dihydropyrido[3,4-d]pyrimidine-7(8H)-carboxylate]
17 | > 10000 nM | > 10000 nM | 37 nM | C[C@H]1COCCN1c1nc(-c2ccc(NC(=O)NC3CC3)cc2)nc2c1CCN(C(=O)C1CC1)C2 [Example 60, (S)-1-(4-(7-(cyclopropanecarbonyl)-4-(3-methylmorpholino)-5,6,7,8-tetrahydropyrido[3,4-d]pyrimidin-2-yl)phenyl)-3-cyclopropylurea]
18 |  | > 10000 nM | 35 nM | CCOC(=O)N1CCc2c(nc(-c3ccc(NC(=O)NC4CC4)cc3)nc2N2CCOC[C@@H]2C)C1 [Example 78, (S)-ethyl 2-(4-(3-cyclopropylureido)phenyl)-4-(3-methylmorpholino)-5,6-dihydropyrido[3,4-d]pyrimidine-7(8H)-carboxylate]
19 | > 10000 nM | > 10000 nM | 34 nM | CCNC(=O)Nc1ccc(-c2nc3c(c(N4CCOC[C@@H]4C)n2)CCN(C(=O)C(C)(C)C)C3)cc1 [Example 58, (S)-1-ethyl-3-(4-(4-(3-methylmorpholino)-7-pivaloyl-5,6,7,8-tetrahydropyrido[3,4-d]pyrimidin-2-yl)phenyl)urea]
20 |  | > 10000 nM | 30 nM | C[C@H]1COCCN1c1nc(-c2ccc(NC(=O)NC3CC3)cc2)nc2c1CCN(C(=O)C(C)(C)C)C2 [Example 64, (S)-1-cyclopropyl-3-(4-(4-(3-methylmorpholino)-7-pivaloyl-5,6,7,8-tetrahydropyrido[3,4-d]pyrimidin-2-yl)phenyl)urea]
21 | > 10000 nM | > 10000 nM | 22 nM | CC(C)C(=O)N1CCc2c(nc(-c3ccc(NC(=O)NC4CC4)cc3)nc2N2CCOC[C@@H]2C)C1 [Example 61, (S)-1-cyclopropyl-3-(4-(7-isobutyryl-4-(3-methylmorpholino)-5,6,7,8-tetrahydropyrido[3,4-d]pyrimidin-2-yl)phenyl)urea]
